Results taken from US6809193B2, “Antisense oligonucleotide compositions and methods for the modulation of JNK proteins” (ISIS Pharmaceuticals, Inc., priority 1997, dated 2004).
Strand notation (5' to 3'): a small letter for the sugar, then the base; units joined by * are phosphorothioate-linked, units joined directly phosphodiester-linked; [ ] holds rarer units or linkages, { } end groups; capitals alone tell only the bases. Where a SMILES comes first, the peptide text is derived from it. The star is where a group is joined. e = 2'-O-(2-methoxyethyl) (MOE); [5mC] = 5-methylcytosine; Cbz = O=C(OCc1ccccc1)*; d = 2'-deoxy (DNA); CH2F = FC*

Tests used:
[1] = test system: JNK1 mRNA; experiment: Northern assay, JNK1 mRNA expression in A549 cells; assay type: cell-based, human; conditions: for inhibition of JNK1 mRNA expression: 400 nM, Northern assay, Table 5; for RNA % Inhibition: JNK1 mRNA
[2] = test system: JNK1 protein; experiment: Western assay, JNK1 protein levels in A549 cells; assay type: cell-based, human; conditions: t = 72 h
Description: (§1) In order to evaluate the activity of potential JNK-modulating oligonucleotides, human lung carcinoma cell line A549 (American Type Culture Collection, 10801 University Boulevard, Manassas, Va. 20110-2209, No. ATCC CCL-185) cells or other cell lines as indicated in the Examples, were grown and treated with oligonucleotides or control solutions as detailed below. After harvesting, cellular extracts were prepared and examined for specific JNK mRNA levels or JNK protein levels (i.e., Northern or Western assays, respectively). In all cases, “% expression” refers to the amount of JNK-specific signal in an oligonucleotide-treated cell relative to an untreated cell (or a cell treated with a control solution that lacks oligonucleotide), and “% inhibition” is calculated as
A549 cells were grown and treated with oligonucleotides as described above. […] The amount of each JNK protein was determined by using a primary antibody that specifically recognizes the appropriate JNK protein. […]
In order to assess the effect of oligonucleotides targeted to JNK1 mRNAs on JNK1 protein levels, Western assays were performed essentially as described above in Example 2, with the following exception(s) and/or modification(s). […] The samples from t=48 h and t=72 h were analyzed using the Northern and Western assays described above.

[3] = test system: MDA-MB-231 tumors; experiment: MDA-MB-231 human tumor xenograft in nude mice; assay type: in vivo; conditions: 25 mg/kg intravenous once daily; for tumor growth compared to the saline control: MDA-MB-231 tumors; for Mean Tumor Volume (cm^3): nude mice
Excerpt: Approximately 5×10^6 breast adenocarcinoma cells (cell line MDA-MB-231; American Type Culture Collection, 10801 University Boulevard, Manassas, Va. 20110-2209, No. ATCC HTB-26) were implanted subcutaneously in the right inner thigh of nude mice (n=6 for each of three sets of mice). Oligonucleotides ISIS 15346 (JNK1, SEQ ID NO:16) and 15353 (JNK2, SEQ ID NO:31) were suspended in saline and administered once daily to two sets of mice on the first day the tumor volume was about 100 mm^3. A saline-only (0.9% NaCl) solution was given to a third set of animals as a control. Oligonucleotides were given by intravenous injection at a dosage of 25 mg/kg. Tumor size was measured and tumor volume was calculated on days 12, 19, 26 and 33 following tumor cell inoculation.

[4] = test system: HUVEC; experiment: Apoptosis in HUVEC, percent hypodiploid cells by flow cytometry; assay type: cell-based, human; conditions: HUVEC treated with JNK2 oligonucleotide plus the agent
[5] = test system: JNK activity; experiment: TNFa-induced JNK activity in HUVEC (GST-c-Jun phosphorylation); assay type: cell-based, human; conditions: 100 nM, 5 ng/ml TNFa 15 minutes, compared to a control oligonucleotide
[6] = test system: JNK2 mRNA; experiment: Northern assay, JNK2 mRNA expression in A549 cells; assay type: cell-based, human; conditions: for dose- and sequence-dependent response on JNK2 mRNA levels: A549 cells, 50, 100, 200 and 400 nM; for inhibition of JNK2 mRNA expression: 400 nM, Northern assay, Table 12
Description: as §1
100%−%Expression=%Inhibition.
The mRNA expression of each JNK protein was determined by using a nucleic acid probe specifically hybridizable thereto. Nucleic acid probes specific for JNK1, JNK2 and JNK3 are described in Examples 3, 4 and 5, respectively. The probes were radiolabelled by means well known in the art (see, e.g., Short Protocols in Molecular Biology, 2nd Ed., Ausubel et al., Eds., John Wiley & Sons, New York, 1992, pages 3-11 to 2-3-44 and 4-17 to 4-18; Ruth, Chapter 6 In: Methods in Molecular Biology, Vol. 26: Protocols for Oligonucleotide Conjugates, Agrawal, ed., Humana Press Inc., Totowa, N.J., 1994, pages 167-185; and Chapter 10 In: Molecular Cloning: A Laboratory Manual, 2nd Ed., Sambrook et al., Eds., pages 10.1-10.70). The blots were stripped and reprobed with a ^32P-labeled glyceraldehyde 3-phosphate dehydrogenase (G3PDH) probe (Clontech Laboratories, Inc., Palo Alto, Calif.) in order to confirm equal loading of RNA and to allow the levels of JNK transcripts to be normalized with regard to the G3PDH signals.
A549 cells were grown in T-75 flasks until 80-90% confluent. At this time, the cells were washed twice with 10 mL of media (DMEM), followed by the addition of 5 mL of DMEM containing 20 μg/mL of LIPOFECTIN™ (i.e., 1:1 (w/w) DOTMA/DOPE, Life Technologies, Gaithersburg, Md.; DOTMA=N-[1-(2,3-dioleyoxy)propyl]-N,N,N-trimethylammonium chloride; DOPE=dioleoyl phosphatidylethanolamine). The oligonucleotides were added from a 10 μM stock solution to a final concentration of 400 nM, and the two solutions were mixed by swirling the flasks. As a control, cells were treated with LIPOFECTIN™ without oligonucleotide under the same conditions and for the same times as the oligonucleotide-treated samples. After 4 hours at 37° C., the medium was replaced with fresh DMEM containing 10% serum. The cells were allowed to recover for 18 hours. Total cellular RNA was then extracted in guanidinium, subject to gel electrophoresis and transferred to a filter according to techniques known in the art (see, e.g., Chapter 7 In: Molecular Cloning: A Laboratory Manual, 2nd Ed., Sambrook et al., Eds., pages 7.1-7.87, and Short Protocols in Molecular Biology, 2nd Ed., Ausubel et al., Eds., John Wiley & Sons, New York, 1992, pages 2-24 to 2-30 and 4-14 to 4-29). Filters were typically hybridized overnight to a probe specific for the particular JNK gene of interest in hybridization buffer (25 mM KPO4, pH 7.4; 5×SSC; 5× Denhardt's solution, 100 μg/ml Salmon sperm DNA and 50% formamide) (Alahari et al., Nucl. Acids Res., 1993, 21, 4079). This was followed by two washes with 1×SSC, 0.1% SDS and two washes with 0.25×SSC, 0.1% SDS. Hybridizing bands were visualized by exposure to X-OMAT AR film and quantitated using a PHOSPHORIMAGER™ essentially according to the manufacturer's instructions (Molecular Dynamics, Sunnyvale, Calif.).
In initial screenings of a set of oligonucleotides derived from the JNK2 sequence (Table 9) for biological activity, a cDNA clone of JNK2 (Kallunki et al., Genes & Development, 1994, 8, 2996) was radiolabeled and used as a JNK2-specific probe in Northern blots. […]

15346 (antisense CTCTCTGTAGGCCCGCTTGG; gapmer, 2'-MOE wings, phosphorothioate, chemistry not fully specified) [compound 15346]
inhibition of JNK1 mRNA expression [1]: at least 88%
Protein % Inhibition [2]: 74.3%
tumor growth compared to the saline control [3]: inhibited tumor growth compared to the saline control

COC(=O)C[C@H](NC(=O)[C@H](C)NC(=O)[C@@H](NC(=O)OCc1ccccc1)C(C)C)C(=O)CF [z-FAD.fmk, z-VAD.fmk] (Cbz-Val-Ala-Asp(OMe)-CH2F)
effect on JNK2 oligonucleotide-induced cell death (apoptosis) [4]: decreased

C[C@@H]1C[C@@H]([C@H](O)CC2CC(=O)NC(=O)C2)C(=O)[C@@H](C)C1 [cyclohexamide]
effect on JNK2 oligonucleotide-induced cell death (apoptosis) [4]: had no effect on apoptosis

C^sT^sC^sT^sC^sT^sG^sT^sA^sG^sG^sC^sC^sC^sG^sC^sT^sT^sG^sG (antisense CTCTCTGTAGGCCCGCTTGG; all phosphorothioate, sugars by position and methylation of C not given here) [ISIS 15346, JNK1 gapmer: P=S, 2′-MOE wings; P=S, 2′-deoxy core]
Mean Tumor Volume (cm^3) ([3]; Day 12 following tumor cell inoculation): 0.122 cm^3
Mean Tumor Volume (cm^3) ([3]; Day 19): 0.255 cm^3
Mean Tumor Volume (cm^3) ([3]; Day 26): 0.400 cm^3
Mean Tumor Volume (cm^3) ([3]; Day 33): 0.638 cm^3
inhibition of TNFa-induced JNK activity [5]: approximately 70%

15347 (antisense CTCTCTGTAGGCCCGCTTGG; gapmer, 2'-MOE P=O wings, P=S deoxy core, chemistry not fully specified) [compound 15347]
inhibition of JNK1 mRNA expression [1]: at least 88%
RNA % Inhibition ([1]; t = 48 h, 300 nM for initial 20 hours then 200 nM for 4 hours): > 70%
RNA % Inhibition ([1]; t = 72 h): > 70%
Protein % Inhibition [2]: 71.6%

CTC-TCT-GTA-GGC-CCG-CTT-GG (antisense dC*dT*dC*dT*dC*dT*dG*dT*dA*dG*dG*dC*dC*dC*dG*dC*dT*dT*dG*dG) [ISIS 12539, human JNK1 antisense, fully P=S and fully 2′-deoxy]
dose- and sequence-dependent response on JNK1 mRNA levels ([1]; A549 cells, 50, 100, 200 and 400 nM): dependent on dose in an approximately linear fashion
% Inhibition ([1]; JNK1 mRNA time course, 48 h): greater than or equal to 80%
dose- and sequence-dependent response on JNK2 mRNA levels [6]: dependent on dose in an approximately linear fashion

15354 (antisense eGeTe[5mC]e[5mC]eG*dG*dG*dC*dC*dA*dG*dG*dC*dC*eAeAeAeGeTe[5mC]) [compound 15354]
inhibition of JNK2 mRNA expression [6]: approximately 80%

G^ST^SG^SC^SG^SC^SG^SC^SG^SA^SG^SC^SC^SC^SG^SA^SA^SA^ST^SC (GTGCGCGCGAGCCCGAAATC; DNA, all phosphorothioate, methylation of C not given here) [ISIS 14319, 12560 scrambled control, 2′-deoxy-phosphorothioate, reference compound]
dose- and sequence-dependent response on JNK2 mRNA levels [6]: neither of the control oligonucleotides effect any consistent response

15353 (antisense eG*eT*e[5mC]*e[5mC]*eG*dG*dG*dC*dC*dA*dG*dG*dC*dC*eA*eA*eA*eG*eT*e[5mC]) [compound 15353]
inhibition of JNK2 mRNA expression [6]: approximately 80%
tumor growth compared to the saline control [3]: inhibited tumor growth compared to the saline control
